Laboratory results as given in US12521393B2, “Cytotoxicity targeting chimeras for CCR2-expressing cells” (GLAXOSMITHKLINE INTELLECTUAL PROPERTY DEVELOPMENT LIMITED, priority 2021, dated 2026).

Legend:
[1] = system: endogenous target monocytes in human PBMC; assay: PBMC ex vivo monocyte depletion flow cytometry assay (Example 200); type: cell-based; conditions: with anti-cotinine antibody (SEQ ID NO: 11/12), 18-24 hours, EC50 in molar, read-out: Ex Vivo Depletion Assay pEC50 (converted)
Summary of the method: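 Monocyte depletion is reported as pEC50, averaged or given individually across runs, and read by flow cytometry staining CD45, CD14 and CD4 with a viability dye. Compounds, diluted four-fold over 11 points from 1 mM DMSO stocks, were combined with 30 μg/mL Fc-enhanced anti-cotinine antibody and human PBMC, then incubated 18-24 h at 37° C.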

[2] = target: T1, CHOK1 cells engineered to overexpress human CCR2 (Homo sapiens, UniProt P41597); assay: Antibody dependent cellular cytotoxicity (ADCC) reporter assay (Example 199); type: cell-based; conditions: with anti-cotinine antibody (SEQ ID NO: 11/12), Jurkat FcγRIIIa NFAT-luciferase reporter cells, 12-18 hours, EC50 in molar, average or individual runs; for EC50: read-out: ADCC Reporter Assay pEC50 (converted)
T1 construct: expressed in transfected cells; host or cells: CHOK1
Method: An antibody dependent cellular cytoxocity reporter assay was conducted using the following four assay components: (i) ARM compound of Formula (I) targeting CCR2 (concentrations ranging from […] to 10 μM) (ii) anti-cotinine antibody having a heavy chain sequence of SEQ ID NO: 11 and a light chain sequence of SEQ ID NO: 12 (rabbit variable region with human IgG1 Fc domain containing a DE mutation (S239D/1332E)) (concentrations ranging from 0.01 μg/mL to 200 μg/mL); (iii) target cells: CHOK1 cells engineered to overexpress either human CCR2 (typically 1000-20,000 cells per well) and (iv) reporter cells: Jurkat cells engineered to express FcγRIIIa with the reporter gene luciferase under the control of the NFAT promoter (typically 3000-75,000 cells per well). Reagents were combined in a final volume of 20 μL in a 384-well tissue culture treated plate. All four assay components were incubated together for about 12-18 hours. Thereafter, BioGlo Detection reagent (Promega) was added to the wells to lyse the cells and provide a substrate for the luciferase reporter protein. Luminescence signal was measured on a microplate reader and signal: background was calculated by dividing the signal of a test well by the signal obtained when no heterobivalent compound of Formula (I) was added. EC50 calculations were done using Graphpad Prism Software, specifically a nonlinear regression curve fit (Y=Bottom+(Top−Bottom)/(1+10A((LogEC50−X)*HillSlope))).
ARMs compounds of Formula (I) of the invention were tested for ADCC activity in the above assay in or more experimental runs and the results are shown in Table 3 below. Potency of the compounds of Formula (I) of the invention is reported as a pEC50 value. The pEC50 value is the negative log of the EC50 value, wherein the EC50 value is the half maximal effective concentration measured in molar (M). For compounds tested in more than one experimental run, the pEC50 value is reported as an average.

[3] = Blood drug concentration analysis by LC-MS/MS after IV dosing with anti-cotinine antibody (Example 201); type: in vivo; conditions: C57 background, human CCR2 knock-in, mouse; hCCR2 knock-in mice, IV 0.1 mpk compound + 10 mpk anti-cotinine antibody, whole blood, 48 hours post-dose; read-out: Exposure of Compound of Formula (I) 48 hours post-dose
Method: After bleeding, each mouse was sacrificed by cervical dislocation. […] Flow Cytometry Analysis:
Samples were analyzed on Q-Trap. […] The total run time was 2 minutes.

Structure (SMILES): CN1C(=O)C[C@H](C(=O)NCCOCCOCCOCCOCCOCCC(=O)N[C@@H]2C[C@H](NC(C)(C)C)CC[C@@H]2N2CC[C@H](Nc3ncnc4ccc(C(F)(F)F)cc34)C2=O)[C@H]1c1cccnc1 [Example 37, (2S,3S)-N-(18-(((1R,2S,5R)-5-(tert-Butylamino)-2-((S)-2-oxo-3-((6-(trifluoromethyl)quinazolin-4-yl)amino)pyrrolidin-1-yl)cyclohexyl)amino)-18-oxo-3,6,9,12,15-pentaoxaoctadecyl)-1-methyl-5-oxo-2-(pyridin-3-yl)pyrrolidine-3-carboxamide]
- EC50 [1]: 5.01 nM
- EC50 [2]: 12.6 nM
- concentration at 48 h [3]: 48.7 ng/mL

Structure (SMILES): CN1C(=O)C[C@H](C(=O)NCCOCCOCCOCCOCCOCCOCCC(=O)N[C@@H]2C[C@H](NC(C)(C)C)CC[C@@H]2N2CC[C@H](Nc3ncnc4ccc(C(F)(F)F)cc34)C2=O)[C@H]1c1cccnc1 [Example 38, (2S,3S)-N-(21-(((1R,2S,5R)-5-(tert-Butylamino)-2-((S)-2-oxo-3-((6-(trifluoromethyl)quinazolin-4-yl)amino)pyrrolidin-1-yl)cyclohexyl)amino)-21-oxo-3,6,9,12,15,18-hexaoxahenicosyl)-1-methyl-5-oxo-2-(pyridin-3-yl)pyrrolidine-3-carboxamide]
- EC50 [1]: 1.58 nM
- EC50 [2]: 2.51 nM
- concentration at 48 h [3]: 47.6 ng/mL

Structure (SMILES): CC(C)N(C)[C@@H]1CC[C@H](N2CC[C@H](Nc3ncnc4ccc(C(F)(F)F)cc34)C2=O)[C@H](NC(=O)CCOCCOCCOCCOCCOCCNC(=O)[C@H]2CC(=O)N(C)[C@@H]2c2cccnc2)C1 [Example 40, (2S,3S)-N-(18-(((1R,2S,5R)-5-(Isopropyl(methyl)amino)-2-((S)-2-oxo-3-((6-(trifluoromethyl)quinazolin-4-yl)amino)pyrrolidin-1-yl)cyclohexyl)amino)-18-oxo-3,6,9,12,15-pentaoxaoctadecyl)-1-methyl-5-oxo-2-(pyridin-3-yl)pyrrolidine-3-carboxamide]
- EC50 [1]: 5.01 nM
- EC50 [2]: 6.31 nM

Structure (SMILES): CC(C)N(C)[C@@H]1CC[C@H](N2CC[C@H](Nc3ncnc4ccc(C(F)(F)F)cc34)C2=O)[C@H](NC(=O)CCOCCOCCOCCOCCOCCOCCNC(=O)[C@H]2CC(=O)N(C)[C@@H]2c2cccnc2)C1 [Example 41, (2S,3S)-N-(21-(((1R,2S,5R)-5-(isopropyl(methyl)amino)-2-((S)-2-oxo-3-((6-(trifluoromethyl)quinazolin-4-yl)amino)pyrrolidin-1-yl)cyclohexyl)amino)-21-oxo-3,6,9,12,15,18-hexaoxahenicosyl)-1-methyl-5-oxo-2-(pyridin-3-yl)pyrrolidine-3-carboxamide]
- EC50 [1]: 2.51 nM
- EC50 [2]: 2 nM

Structure (SMILES): CC(C)N(C)[C@@H]1CC[C@H](N2CC[C@H](Nc3ncnc4ccc(C(F)(F)F)cc34)C2=O)[C@H](NC2CCN(C(=O)CCOCCOCCOCCOCCNC(=O)[C@H]3CC(=O)N(C)[C@@H]3c3cccnc3)CC2)C1 [Example 69, (2S,3S)-N-(15-(4-(((1R,2S,5R)-5-(Isopropyl(methyl)amino)-2-((S)-2-oxo-3-((6-(trifluoromethyl)quinazolin-4-yl)amino)pyrrolidin-1-yl)cyclohexyl)amino)piperidin-1-yl)-15-oxo-3,6,9,12-tetraoxapentadecyl)-1-methyl-5-oxo-2-(pyridin-3-yl)pyrrolidine-3-carboxamide]
- EC50 [1]: 1.58 nM
- EC50 [2]: 0.316 nM
- concentration at 48 h [3]: 39.9 ng/mL

Structure (SMILES): CC(C)N(C)[C@@H]1CC[C@H](N2CC[C@H](Nc3ncnc4ccc(C(F)(F)F)cc34)C2=O)[C@H](NC(=O)[C@H]2CC[C@@H](NC(=O)CCCOCCCCOCCNC(=O)[C@H]3CC(=O)N(C)[C@@H]3c3cccnc3)CC2)C1 [Example 122, (2S,3S)-N-(2-(4-(4-(((1S,4s)-4-(((1R,2S,5R)-5-(Isopropyl(methyl)amino)-2-((S)-2-oxo-3-((6-(trifluoromethyl)quinazolin-4-yl)amino)pyrrolidin-1-yl)cyclohexyl)carbamoyl)cyclohexyl)amino)-4-oxobutoxy)butoxy)ethyl)-1-methyl-5-oxo-2-(pyridin-3-yl)pyrrolidine-3-carboxamide]
- EC50 [1]: 0.794 nM
- ADCC Reporter Assay pEC50 [2]: 9

Structure (SMILES): CN1C(=O)C[C@H](C(=O)NCCOCCNC(=O)[C@H]2C[C@H](NC(=O)CCOCCC(=O)N[C@@H]3C[C@H](NC(C)(C)C)CC[C@@H]3N3CC[C@H](Nc4ncnc5ccc(C(F)(F)F)cc45)C3=O)C2)[C@H]1c1cccnc1 [Example 188, (2S,3S)-N-(2-(2-((1R,3S)-3-(3-(3-(((1R,2S,5R)-5-(tert-butylamino)-2-((S)-2-oxo-3-((6-(trifluoromethyl)quinazolin-4-yl)amino)pyrrolidin-1-yl)cyclohexyl)amino)-3-oxopropoxy)propanamido)cyclobutane-1-carboxamido)ethoxy)ethyl)-1-methyl-5-oxo-2-(pyridin-3-yl)pyrrolidine-3-carboxamide]
- EC50 [1]: 0.316 nM
- EC50 [2]: 0.501 nM
- concentration at 48 h [3]: 73 ng/mL

Structure (SMILES): CC(C)N(C)[C@@H]1CC[C@H](N2CC[C@H](Nc3ncnc4ccc(C(F)(F)F)cc34)C2=O)[C@H](NC(=O)CCCN2CCC3(CCN(CCCNC(=O)[C@H]4CC(=O)N(C)[C@@H]4c4cccnc4)CC3)CC2)C1 [Example 191, (2S,3S)-N-(3-(9-(4-(((1R,2S,5R)-5-(Isopropyl(methyl)amino)-2-((S)-2-oxo-3-((6-(trifluoromethyl)quinazolin-4-yl)amino)pyrrolidin-1-yl)cyclohexyl)amino)-4-oxobutyl)-3,9-diazaspiro[5.5]undecan-3-yl)propyl)-1-methyl-5-oxo-2-(pyridin-3-yl)pyrrolidine-3-carboxamide]
- EC50 [1]: 0.501 nM

Structure (SMILES): CC(C)N(C)[C@@H]1CC[C@H](N2CC[C@H](Nc3ncnc4ccc(C(F)(F)F)cc34)C2=O)[C@H](NC(=O)[C@H]2CC[C@H](C(=O)NCCCOCCCCOCCCNC(=O)[C@H]3CC(=O)N(C)[C@@H]3c3cccnc3)CC2)C1 [Example 194, (1r,4R)-N^1-((1R,2S,5R)-5-(Isopropyl(methyl)amino)-2-((S)-2-oxo-3-((6-(trifluoromethyl)quinazolin-4-yl)amino)pyrrolidin-1-yl)cyclohexyl)-N^4-(3-(4-(3-((2S,3S)-1-methyl-5-oxo-2-(pyridin-3-yl)pyrrolidine-3-carboxamido)propoxy)butoxy)propyl)cyclohexane-1,4-dicarboxamide]
- EC50 [1]: 0.631 nM
